Test results reported in patent publication US20220296563A1, “ACYLATED ACTIVE AGENTS AND METHODS OF THEIR USE FOR THE TREATMENT OF METABOLIC DISORDERS AND NONALCOHOLIC FATTY LIVER DISEASE” (Flagship Pioneering Innovations V, Inc., priority 2019, published 2022).

Assays:
Mouse myocyte = Mouse myocyte lipolysis assay; format: cell-based; details: 100 μM, differentiated myocytes
Description: Cells were obtained from ATCC and cultured in Dulbecco's Modified Eagle's medium (DMEM) containing 20% fetal bovine serum and 1% penicillin/streptomycin at 37° C. in an incubator with 5% CO2 Once the cells became confluent, they were seeded into a tissue culture treated 96 well plate. The next day, the medium containing DMEM with 2% equine serum was used to start differentiation. Table 2 lists the tested compounds including those that reduced the release of glycerol (+, ++, or +++). The lipolytic rate of muscle triglycerides is associated with metabolic dysfunction including insulin resistance and liver steatosis. Compounds that lower lipolysis of adipocytes may improve metabolic function including improving insulin sensitivity and reducing liver steatosis, thus improving outcomes in patients with diabetes mellitus (e.g., prediabetes or type II diabetes) obesity, and hyperlipidemia.

C57BL/6 mice = assay: In vivo evaluation in C57BL/6 mice fed a high-fat diet; details: vs. HFD control group, up to day 84
Description: Animals were allowed free access to food and drinking water for the entire study. Animals were weighed on a regular basis, and food and drinking water consumption monitored. Plasma and stool samples were collected at the beginning of the study and 42 days into the study. Additional blood was drawn from fasted mice 58 days into the study. Insulin tolerance tests were performed 72 or 73 days into the study. Following an approximate 4 h fast, 0.5 Units/kg insulin was administered intraperitoneally. Blood was collected pre-insulin challenge (t=0) and at t=15, 30, 60, 90, and 120 min following insulin challenge. Oral glucose tolerance tests were performed 79 or 80 days into the study. Following an approximate 4 h fast, 2 g/kg glucose was administered by oral gavage. Blood was collected pre-insulin challenge (t=0) and at t=15, 30, 60, 90, and 120 min following glucose challenge. At the end of the study, body weight, food consumption, blood glucose, serum ALT levels, serum AST levels, serum cholesterol (total cholesterol. HDL, and LDL levels), serum triglycerides levels, liver triglyceride levels, liver cholesterol levels, liver weight, subcutaneous were measured in all mice.

O=C(O)c1cc(O)ccc1O [Gentisate]
Free glycerol % DMSO (Mouse myocyte): +++ (50%<: +++)

CC(=O)O[C@@H]1OC[C@@H](OC(C)=O)[C@H](OC(C)=O)[C@H]1OC(C)=O [compound 4]
body weight (C57BL/6 mice): induce weight loss
